Measurements as given in PubChem BioAssay (NCI).
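Tested at 5 concentrations; 48 h exposure; 96-well plates; endpoints linearly interpolated, else capped at highest concentration. GI50 is the concentration that inhibits growth by half. TGI is the concentration that stops growth completely.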

Columns and labels:
Experiment in all cases: DTP human tumour cell line panel, 48 h; in the data active = GI50 below about 0.43 µM; inactive = the rest
[1] = system: UACC-257 melanoma
[2] = system: DU-145 prostate
[3] = system: NCI-H23 lung
[4] = system: TK-10 renal
[5] = system: MCF7 breast
[6] = system: KM12 colon
[7] = system: T-47D breast
[8] = system: HOP-92 NSCLC
[9] = system: HOP-62 NSCLC
[10] = system: MDA-MB-435
[11] = system: PC-3 prostate
[12] = system: SK-MEL-2 melanoma
[13] = system: NCI/ADR-RES ovarian
[14] = system: NCI-H460 lung
[15] = system: HCC-2998 colon
[16] = system: COLO 205 colon
[17] = system: HCT-15 colon
[18] = system: OVCAR-8 ovarian
[19] = system: SF-295 CNS
[20] = system: SN12C renal
[21] = system: SNB-75 CNS
[22] = system: SK-OV-3 ovarian
[23] = system: HT29 colon
[24] = system: BT-549 breast
[25] = system: OVCAR-4 ovarian
[26] = system: RXF 393 renal
[27] = system: M14 melanoma

O=C(COc1nc2ccccc2nc1-c1ccccc1)Nc1ccc(Cl)cc1
inactive: GI50 [1] 50.1 µM | GI50 [2] 54.9 µM | GI50 [3] 24.9 µM | GI50 [4] 15.1 µM | GI50 [5] 36.8 µM | GI50 [6] 8.38 µM | GI50 [7] 37.5 µM | GI50 [8] 8.77 µM | GI50 [9] 11.9 µM | GI50 [10] 18.4 µM | GI50 [11] 9.99 µM | GI50 [12] 15.1 µM | GI50 [13] 4.46 µM | GI50 [14] 9.79 µM | GI50 [15] 15.6 µM | GI50 [16] 15.5 µM | GI50 [17] 15.1 µM | GI50 [18] 11.3 µM | GI50 [19] 5.09 µM | GI50 [20] 27.4 µM | GI50 [21] 27.7 µM | GI50 [22] 47.6 µM | GI50 [23] 11.4 µM | GI50 [24] 33.6 µM | GI50 [25] 27.7 µM | GI50 [26] 29.3 µM | GI50 [27] 11.4 µM
58 µM: TGI [12]
40.1 µM: TGI [19]
77.8 µM: TGI [14]
80.7 µM: TGI [27]
80 µM: TGI [26]
40.2 µM: TGI [9]
36.7 µM: TGI [8]
76.8 µM: TGI [4]
> 100 µM: TGI [1] | TGI [2] | TGI [3] | TGI [5] | TGI [6] | TGI [7] | TGI [10] | TGI [11] | TGI [13] | TGI [15] | TGI [16] | TGI [17] | TGI [18] | TGI [20] | TGI [21] | TGI [22] | TGI [23] | TGI [24] | TGI [25]
